Experimental data reported in patent US5547982A, “Anti-tumor platinum complexes” (priority 1995, dated 1996).

System: Daudi tumor cell line
Experiment: Cytotoxicity testing against Daudi cells (killing of 50% of the Daudi cells)
Assay type: cell-based
Settings: 5E9 conjugate versus free agents, conjugate MSR=8.9, read-out: CC50 (concentration of platinum compound which killed 50% of the Daudi cells)

ammino[4-succinimidyl -(5-aminopentan-2-one) terephthalic hydrazone] tetrachloro platinum (IV) [AAtC]
CC50: 2.1 µM
